One data set is described as follows: in vitro. The conditions noted are these: human.
Data set [1] deals with SARS-CoV-2_mNeonGreen virus (Wuhan strain). As to the kind of experiment: microbe, parasite or virus in culture. Format: cell-based. The conditions noted are these: for EC50: read-out: EC50 Mean ± SD (antiviral activity).
Data set [2] concerns A549+hACE2+hTMPRSS2_mCherry cells.
Where [3] appears, read: Severe acute respiratory syndrome coronavirus 2.

Read-outs that look alike come from different tables or passages of the source.

In general, EC50 refers to the concentration that produces a half-maximal response.

`C/C=C/C[C@@H](C)[C@@H](O)[C@H]1C(=O)N[C@@H](CC)C(=O)N(C)[C@H](C)C(=O)N(CC)[C@@H](C(C)C)C(=O)N[C@@H](C(C)C)C(=O)N(C)[C@@H](CC(C)C)C(=O)N[C@@H](C)C(=O)N[C@H](C)C(=O)N(C)[C@@H](CC(C)C)C(=O)N(C)[C@@H](CC(C)C)C(=O)N(C)[C@@H](C(C)C)C(=O)N1C` [Alisporivir] showed a CC50 in “in vitro” of 23800 ± 4750 nM. Besides, in data set [1] (setting [3]), the EC50 turned out to be 1460 ± 130 nM.

For the molecule `CCn1c(CO)nn(-c2cc(O[C@@H](C)C(F)(F)F)c(C(=O)Nc3c(F)cccc3Cl)cc2F)c1=O` [BAY-2402234], in data set [1], the EC50 is 5 ± 1 nM.

In “in vitro”, `CN(C)C(=O)COC(=O)Cc1ccc(OC(=O)c2ccc(NC(=N)N)cc2)cc1` [Camostat] registered a CC50 greater than 50000 nM. The half-maximal effective concentration (EC50) in data set [1] (setting [3]) was greater than 50000 nM.

`Cn1cnc(Cn2c(=O)[nH]/c(=N\c3cc4cn(C)nc4cc3Cl)n(Cc3cc(F)c(F)cc3F)c2=O)n1` [Ensitrelvir] came in with a CC50 in the data set “in vitro” greater than 50000 nM. The EC50 in data set [1] (setting [3]) worked out at 260 ± 43 nM.

As for `N#C[C@@]1(c2ccc3c(N)ncnn23)O[C@H](CO)[C@@H](O)[C@H]1O` [GS-441524], in the data set “in vitro”, the CC50 was greater than 50000 nM. Moreover, the “selectivity index (SI)” value in data set [1] was greater than 30. Further, the EC50 in data set [1] (setting [3]) is 1660 ± 420 nM.

Take `CC(C)C(=O)OC[C@H]1O[C@@H](n2ccc(NO)nc2=O)[C@H](O)[C@@H]1O` [Molnupiravir]: the CC50 in “in vitro” was greater than 50000 nM. The EC50 in data set [1] (setting [3]) amounted to 1260 ± 230 nM.

In turn, `CC(C)(C)[C@H](NC(=O)C(F)(F)F)C(=O)N1C[C@H]2[C@@H]([C@H]1C(=O)N[C@H](C#N)C[C@@H]1CCNC1=O)C2(C)C` [Nirmatrelvir] yielded a CC50 in “in vitro” greater than 50000 nM. In addition, the EC50 in data set [1] (setting [3]) was determined as 120 ± 17 nM.

In the case of `COc1cccc2[nH]c(C(=O)N[C@@H](CC(C)C)C(=O)N[C@@H](C[C@@H]3CCNC3=O)C(=O)CO)cc12` [PF-00835231], in data set [1], the “selectivity index (SI)” value is greater than 115 and the EC50 came out at 430 ± 80 nM. Besides, the CC50 in data set [2] was greater than 50000 nM.

As for `CCC(CC)COC(=O)[C@H](C)N[P@](=O)(OC[C@H]1O[C@@](C#N)(c2ccc3c(N)ncnn23)[C@H](O)[C@@H]1O)Oc1ccccc1` [Remdesivir], in “in vitro”, the CC50 was greater than 50000 nM. In addition, the EC50 in data set [1] (setting [3]) worked out at 40 ± 5 nM.

The values are drawn from PMC9767876, “Development of a robust and convenient dual-reporter high-throughput screening assay for SARS-CoV-2 antiviral drug discovery” (Antiviral Research, 2023).
